Among the test systems are A549 NSCLC; HCT-116 colon; HS 578T breast; K-562 leukemia; M14 melanoma; NCI-H226 lung; OVCAR-4 ovarian; SNB-75 CNS; U251 CNS; NCI-H522 lung.
Assay in all cases: NCI anticancer screen, dose series, 48 h

Structures are written as SMILES.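 Assay format: 96-well plates, 48-hour exposure. Abbreviation: GI50, concentration required for 50% inhibition of growth. TGI is the concentration that stops growth completely.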 Bounds are passed on as bounds.

Regarding `C=CCOc1ccccc1C1(O)c2ccccc2C2=NCCCN21` (centres undefined), the TGI was above 100 µM with A549 NSCLC; above 100 µM with HCT-116 colon; above 100 µM in the test on HS 578T breast; above 100 µM with K-562 leukemia; 39.8 µM in the test with M14 melanoma; 76.4 µM in the test with NCI-H226 lung. For the same compound, the TGI in the test on OVCAR-4 ovarian, in the test on SNB-75 CNS and with U251 CNS was above 100 µM in each case.
As for `COC(=O)/C=C(\S/C=C(/c1ccccc1)N1CCn2c(C(=O)c3ccccc3)c(C(=O)OC)c(C(=O)OC)c21)C(=O)OC`, the TGI is above 10 µM in the test on A549 NSCLC; 5 µM in the test on HCT-116 colon; above 10 µM in the test on HS 578T breast; above 10 µM in the test on K-562 leukemia; 5.83 µM in the test on M14 melanoma; above 10 µM in the test with NCI-H226 lung. For the same compound, the TGI with NCI-H522 lung was 1.73 µM; with OVCAR-4 ovarian it was 6.57 µM; in the test with SNB-75 CNS, above 10 µM; in the test on U251 CNS, above 10 µM.
As to `COC(=O)[C@@H]1CC(C(CN)c2cn(C(=O)OC(C)(C)C)c3ccccc23)C(=O)N1C(=O)OC(C)(C)C` (some centres undefined), the TGI in the test with A549 NSCLC was above 100 µM; with HCT-116 colon it was above 100 µM; with HS 578T breast, above 100 µM; in the test on K-562 leukemia, 48.4 µM; with M14 melanoma, above 100 µM; with NCI-H226 lung it was 97.8 µM. Moreover, the TGI in the test with NCI-H522 lung was 95.8 µM; with OVCAR-4 ovarian, 66.6 µM; in the test with SNB-75 CNS it was 33.8 µM; with U251 CNS, above 100 µM.
For the compound `CCCC1(CCC)c2cc(/C=N\O)ccc2-c2ccc(-c3ccc(C(C)(C)C)cc3)cc21`, the TGI in the test with A549 NSCLC was above 100 µM; in the test on HCT-116 colon it was 54.8 µM; in the test with HS 578T breast, above 100 µM; with K-562 leukemia, above 100 µM; in the test on M14 melanoma, above 100 µM; in the test on OVCAR-4 ovarian it was above 100 µM. Further, in the test on SNB-75 CNS, the TGI is above 100 µM.
Take `CC/C=C/C[C@H](O)[C@H]1C[C@H]2O[C@H](CC(=O)OC)C[C@H]2O1`: the TGI in the test on A549 NSCLC, with HCT-116 colon, in the test with HS 578T breast, in the test with K-562 leukemia, in the test on M14 melanoma and in the test on NCI-H226 lung was above 100 µM each time. In addition, the TGI in the test on NCI-H522 lung, in the test on OVCAR-4 ovarian, in the test with SNB-75 CNS and in the test with U251 CNS was above 100 µM throughout.
For the compound `ClCc1cccc(CSc2ncnc3c2ncn3Cc2cccc(CCl)c2)c1`, the GI50 with A549 NSCLC was 4.54 µM; in the test with HCT-116 colon, 1.76 µM; in the test with HS 578T breast, 5.39 µM; in the test on K-562 leukemia it was 2.71 µM; in the test on M14 melanoma it was 1.71 µM; in the test on NCI-H226 lung, 1.66 µM. In addition, the GI50 was 1.42 µM with NCI-H522 lung, 2.38 µM with OVCAR-4 ovarian, 1.51 µM in the test with SNB-75 CNS and 1.59 µM in the test on U251 CNS. The TGI in the test with A549 NSCLC was 18.4 µM; with HCT-116 colon, 3.31 µM; with HS 578T breast it was above 100 µM; in the test on K-562 leukemia, 15 µM; in the test on M14 melanoma, 3.23 µM; in the test with NCI-H226 lung it was 4.54 µM. The TGI in the test on NCI-H522 lung was determined as 3.42 µM; with OVCAR-4 ovarian, 10.6 µM; in the test with SNB-75 CNS it was 2.93 µM; in the test with U251 CNS it was 3.01 µM.
Regarding `Cc1ccc(S(=O)(=O)N/N=C2/CC3CCC4CC2CC34)cc1` (centres undefined), the TGI in the test with A549 NSCLC, with HCT-116 colon, in the test on HS 578T breast, in the test with K-562 leukemia, in the test with M14 melanoma and in the test on NCI-H226 lung was above 100 µM throughout. Further, the TGI with NCI-H522 lung, with SNB-75 CNS and with U251 CNS was above 100 µM throughout.
Take `CSCCCNC(=O)c1csc(-c2csc(CCNC(=O)CNC(=O)CNC(=O)OC(C)(C)C)n2)n1`: the TGI in the test on A549 NSCLC, in the test on HCT-116 colon, in the test with HS 578T breast, with K-562 leukemia, in the test with M14 melanoma and in the test on NCI-H226 lung was above 100 µM each time. The TGI in the test on NCI-H522 lung, in the test on OVCAR-4 ovarian, in the test with SNB-75 CNS and in the test with U251 CNS was above 100 µM throughout.
On to `COc1cc(NC=C2C(=O)OC(C)(C)OC2=O)c(OC)c(C)c1OC`, for which the TGI in the test on A549 NSCLC, with HCT-116 colon, in the test on HS 578T breast, in the test on K-562 leukemia, in the test with M14 melanoma and with NCI-H226 lung was above 100 µM throughout. Further, the TGI in the test on NCI-H522 lung, in the test on OVCAR-4 ovarian, with SNB-75 CNS and in the test with U251 CNS was above 100 µM in each case.
As for `O=C1CCCCC/C1=C\c1ccccc1`, the TGI in the test with A549 NSCLC, with HCT-116 colon, with HS 578T breast, in the test with K-562 leukemia, in the test on M14 melanoma and with NCI-H226 lung was above 100 µM each time. The TGI with NCI-H522 lung, with OVCAR-4 ovarian, in the test with SNB-75 CNS and with U251 CNS was above 100 µM each time.
Turning to `CC(C)/C(=N\[N+](C)(C)C)c1ccccc1`, the TGI with A549 NSCLC, in the test with HCT-116 colon, in the test with HS 578T breast, in the test with K-562 leukemia, in the test on M14 melanoma and in the test on NCI-H226 lung was above 100 µM throughout. For the same compound, the TGI in the test on NCI-H522 lung, in the test on OVCAR-4 ovarian, with SNB-75 CNS and with U251 CNS was above 100 µM throughout.
On to `CC(C)(C)OC(=O)CN1CCN(CC(=O)N2CCN(C(=O)OCc3ccccc3)CC2)CCN(CC(=O)OC(C)(C)C)CCN(CC(=O)N2CCN(C(=O)OCc3ccccc3)CC2)CC1`, for which the TGI was 16.3 µM with A549 NSCLC; above 38 µM in the test with HCT-116 colon; 5.67 µM in the test on HS 578T breast; 14.3 µM in the test with M14 melanoma; 22.8 µM in the test with NCI-H226 lung; 2.87 µM with NCI-H522 lung. Also, the results for the TGI in the test with OVCAR-4 ovarian, in the test on SNB-75 CNS and in the test with U251 CNS were 16.2 µM, 4.75 µM and 9.51 µM, respectively.

(Values after PubChem BioAssay (NCI).)
